Test results published in patent US20150094328A1, “4-Azaindole Derivatives” (Eisai R&D Management Co., Ltd., priority 2013, published 2015).

Biological target: T1, mAChR M1 (UniProt P11229)
T1 sequence (P11229 1-460): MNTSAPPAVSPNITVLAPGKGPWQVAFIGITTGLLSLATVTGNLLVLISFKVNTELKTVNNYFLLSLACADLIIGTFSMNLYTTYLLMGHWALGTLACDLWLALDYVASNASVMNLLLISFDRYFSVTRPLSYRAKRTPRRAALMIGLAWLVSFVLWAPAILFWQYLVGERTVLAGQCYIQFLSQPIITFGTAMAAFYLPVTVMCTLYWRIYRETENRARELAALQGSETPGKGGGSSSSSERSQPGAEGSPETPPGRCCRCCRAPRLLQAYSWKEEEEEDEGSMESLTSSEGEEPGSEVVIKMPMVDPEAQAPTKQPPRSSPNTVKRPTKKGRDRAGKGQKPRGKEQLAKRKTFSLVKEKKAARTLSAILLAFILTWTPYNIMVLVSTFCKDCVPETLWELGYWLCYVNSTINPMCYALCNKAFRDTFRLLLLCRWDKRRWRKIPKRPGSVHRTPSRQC
Test: In vitro cellular calcium flux assay, positive allosteric modulator mode, mAChR M1
Format: cell-based, human
Conditions: PAM mode with EC20 carbachol, BHK cells expressing mAChR M1, Examples 76-80 and 82-89 tested in slightly modified procedure
Method: Baby hamster kidney cells stably expressing human or rat mAChR M1 to M5 were utilised for primary and selectivity profiling activities. mAChR M2 and M4 cell lines also stably expressed the chimeric Gαqi5 G-protein.
Human mAChR M1, M3, M5 and rat M1 cells were grown in low glucose Dulbecco's Modified Eagle's Medium (DMEM) medium plus heat inactivated 10% fetal bovine serum (HI FBS) and 500 μg/ml hygromycin B^1. Human mAChR M2 and M4 cells were maintained as above with^2 the addition of 500 μg/ml G418 to the media. Cells were maintained in culture at 37° C./5% CO2 and passaged twice weekly by treatment with 0.05% Trypsin/EDTA detachment solution, centrifugation (200 g, 5 min) and re-suspension in fresh media. Following cell expansion, cells were cryopreserved at −80° C. by treatment with 0.05% Trypsin/EDTA detachment solution, centrifugation (200 g, 5 min) and re-suspension of the pellet in freezing media (90% HI FBS/10% DMSO^3) at 15E6 cells/ml^4.
Prior to assaying, cells were prepared by thawing at 37° C. in a water bath, centrifugation (200 g, 5 min) and re-suspension of the pellet in fresh media. 15000 cells per well were seeded in black, clear bottomed 384-well Greiner Bio-One plates in plating medium (DMEM/10% HI FBS) and incubated overnight at 37C/5% CO2.
On the day of the assay, media was removed from each well and replaced with 500 assay buffer (HBSS with 20 mM HEPES and 2.5 mM Probenecid) containing the calcium indicator, Calcium 4 (Molecular Devices). Cells were then incubated at 37° C./5% CO2 for 30 min and at room temperature.
Compound preparation was carried out by generation of 11-point, 1 in 3 serial dilution concentration response curves in 100% DMSO. Compound was then diluted 1 in 65^6 with assay buffer (HBSS with 20 mM HEPES and 2.5 mM Probenecid) prior to the addition of 10 ul^7 to the cells using a Tetra fluorometric imaging plate reader (Molecular Devices)^8. Compound driven increases in intracellular calcium flux was measured as an increase in fluorescence (494Ex, 516Em)^9.
Following agonist data acquisition, cells were then incubated for a further 30 min at room temperature before either an EC20 concentration (to measure positive allosteric modulator activity) or an EC80 concentration (to measure antagonism) of carbachol was added using a fluorometric imaging plate reader. Positive allosteric modulator pEC50 values and antagonist pIC50 values for each compound were then determined. […] Data analysis was carried out using a 4 parameter logistic nonlinear regression model with the XLFIT (IDBS) excel add-in^10.
^1-10Examples 76-80 and 82-89 were tested in a slightly modified procedure. The points of modification and the alternate reagents, concentrations or equipment employed in these examples were: ^1200 μg/ml hygromycin B; ^2G418 not added; ^3CELLBANKER 1; ^410E6; ^540 μl; ^61 in 99; ^720 μl; ^8FDSS6000 (Hamamatsu Photonics); ^9(480Ex, 540Em); 10Spotfire (TIBCO).

Compound: O=C(N[C@H]1CCCC[C@@H]1CO)c1cn(Cc2ccc(F)cc2)c2cccnc12 (racemic) [Example 18, 1-(4-Fluorobenzyl)-N-(trans-2-(hydroxymethyl)cyclohexyl)-1H-pyrrolo[3,2-b]pyridine-3-carboxamide]
- pEC50 for positive allosteric modulation: 6.1

Compound: C[C@H]1COCC[C@@H]1NC(=O)c1cn(Cc2ccc(F)cc2)c2cccnc12 (racemic) [Example 19, 1-(4-Fluorobenzyl)-N-(trans-3-methyltetrahydro-2H-pyran-4-yl)-1H-pyrrolo[3,2-b]pyridine-3-carboxamide]
- pEC50 for positive allosteric modulation: 6.0

Compound: C[C@H]1CCCC[C@@H]1NC(=O)c1cn(Cc2ccc(F)cc2)c2cccnc12 (racemic) [Example 20, 1-(4-Fluorobenzyl)-N-(trans-2-methylcyclohexyl)-1H-pyrrolo[3,2-b]pyridine-3-carboxamide]
- pEC50 for positive allosteric modulation: 6.1

Compound: O=C(N[C@H]1CCC[C@@H]1O)c1cn(Cc2ccc(F)cc2)c2cccnc12 (racemic) [Example 27, 1-(4-Fluorobenzyl)-N-(trans-2-hydroxycyclopentyl)-1H-pyrrolo[3,2-b]pyridine-3-carboxamide]
- pEC50 for positive allosteric modulation: 6.1

Compound: O=C(N[C@H]1CCCCC[C@@H]1O)c1cn(Cc2ccc(F)cc2)c2cccnc12 (racemic) [Example 28, 1-(4-Fluorobenzyl)-N-(trans-2-hydroxycycloheptyl)-1H-pyrrolo[3,2-b]pyridine-3-carboxamide]
- pEC50 for positive allosteric modulation: 6.6

Compound: O=C(N[C@@H]1CCCC[C@H]1O)c1cn(Cc2ccc(-c3ccc(F)cc3)cc2)c2cccnc12 (racemic) [Example 46, 1-((4′-Fluoro-[1,1′-biphenyl]-4-yl)methyl)-N-(trans-2-hydroxycyclohexyl)-1H-pyrrolo[3,2-b]pyridine-3-carboxamide]
- pEC50 for positive allosteric modulation: 6.5

Compound: O=C(NC1CCCOC1)c1cn(Cc2ccc(-n3cccn3)cc2)c2cccnc12 (racemic) [Example 49, 1-(4-(1H-Pyrazol-1-yl)benzyl)-N-(tetrahydro-2H-pyran-3-yl)-1H-pyrrolo[3,2-b]pyridine-3-carboxamide]
- pEC50 for positive allosteric modulation: 5.6

Compound: O=C(N[C@@H]1CCC(F)(F)C[C@H]1O)c1cn(Cc2ccc(F)cc2)c2cccnc12 (single isomer, unassigned) [Example 35, N-(trans-4,4-Difluoro-2-hydroxycyclohexyl)-1-(4-fluorobenzyl)-1H-pyrrolo[3,2-b]pyridine-3-carboxamide]
- pEC50 for positive allosteric modulation: 6.1

Compound: O=C(N[C@H]1CCC(F)(F)C[C@H]1O)c1cn(Cc2ccc(F)cc2)c2cccnc12 (single isomer, unassigned) [Example 36, N-(cis-4,4-Difluoro-2-hydroxycyclohexyl)-1-(4-fluorobenzyl)-1H-pyrrolo[3,2-b]pyridine-3-carboxamide]
- pEC50 for positive allosteric modulation: 6.3

Compound: Cc1ccnc2c(C(=O)N[C@H]3CCOC[C@@H]3O)cn(Cc3ccc(F)cc3)c12 (single isomer, unassigned) [Example 82, 1-(4-Fluorobenzyl)-N-(trans-3-hydroxytetrahydro-2H-pyran-4-yl)-7-methyl-1H-pyrrolo[3,2-b]pyridine-3-carboxamide]
- pEC50 for positive allosteric modulation: 7.8

Compound: COc1ccc(Cn2cc(C(=O)N[C@H]3CCOC[C@@H]3O)c3nccc(C)c32)cc1 (single isomer, unassigned) [Example 83, 1-(4-Methoxybenzyl)-N-(trans-3-hydroxytetrahydro-2H-pyran-4-yl)-7-methyl-1H-pyrrolo[3,2-b]pyridine-3-carboxamide]
- pEC50 for positive allosteric modulation: 8.0

Compound: COc1ccc(Cn2cc(C(=O)N[C@H]3CCOC[C@@H]3O)c3nccc(C)c32)cc1F (single isomer, unassigned) [Example 84, 1-(3-Fluoro-4-methoxybenzyl)-N-(trans-3-hydroxytetrahydro-2H-pyran-4-yl)-7-methyl-1H-pyrrolo[3,2-b]pyridine-3-carboxamide]
- pEC50 for positive allosteric modulation: 7.9

Compound: COc1cc(Cn2cc(C(=O)N[C@H]3CCOC[C@@H]3O)c3nccc(C)c32)ccn1 (single isomer, unassigned) [Example 85, N-(trans-3-Hydroxytetrahydro-2H-pyran-4-yl)-1-((2-methoxypyridin-4-yl)methyl)-7-methyl-1H-pyrrolo[3,2-b]pyridine-3-carboxamide]
- pEC50 for positive allosteric modulation: 7.3

Compound: O=C(N[C@@H]1CCOC[C@H]1O)c1cn(Cc2cccc(F)c2)c2c(Cl)ccnc12 (single isomer, unassigned) [Example 86, 7-Chloro-1-(3-fluorobenzyl)-N-(trans-3-hydroxytetrahydro-2H-pyran-4-yl)-1H-pyrrolo[3,2-b]pyridine-3-carboxamide]
- pEC50 for positive allosteric modulation: 7.6

Compound: COc1ccc(Cn2cc(C(=O)N[C@H]3CCOC[C@@H]3O)c3nccc(Cl)c32)cc1 (single isomer, unassigned) [Example 87, 7-Chloro-1-(4-methoxybenzyl)-N-(trans-3-hydroxytetrahydro-2H-pyran-4-yl)-1H-pyrrolo[3,2-b]pyridine-3-carboxamide]
- pEC50 for positive allosteric modulation: 7.9

Compound: N#Cc1ccnc2c(C(=O)N[C@H]3CCCC[C@@H]3O)cn(Cc3ccc(C(F)(F)F)cc3)c12 [Example 33, 7-Cyano-N-((1S,2S)-2-hydroxycyclohexyl)-1-(4-(trifluoromethyl)benzyl)-1H-pyrrolo[3,2-b]pyridine-3-carboxamide]
- pEC50 for positive allosteric modulation: 7.0

Compound: N#Cc1ccc2c(n1)c(C(=O)N[C@H]1CCCC[C@@H]1O)cn2Cc1ccc(-n2cccn2)cc1 [Example 41, 1-(4-(1H-Pyrazol-1-yl)benzyl)-5-cyano-N-((1S,2S)-2-hydroxycyclohexyl)-1H-pyrrolo[3,2-b]pyridine-3-carboxamide]
- pEC50 for positive allosteric modulation: 6.5

Compound: Cn1cnc(-c2ccc(Cn3cc(C(=O)N[C@H]4CCCC[C@@H]4O)c4ncccc43)cc2)c1 [Example 43, N-((1S,2S)-2-Hydroxycyclohexyl)-1-(4-(1-methyl-1H-imidazol-4-yl)benzyl)-1H-pyrrolo[3,2-b]pyridine-3-carboxamide]
- pEC50 for positive allosteric modulation: 8.0

Compound: N#Cc1ccc(Cn2cc(C(=O)N[C@H]3CCCC[C@@H]3O)c3nccc(Cl)c32)cn1 [Example 70, 7-Chloro-1-((6-cyanopyridin-3-yl)methyl)-N-((1S,2S)-2-hydroxycyclohexyl)-1H-pyrrolo[3,2-b]pyridine-3-carboxamide]
- pEC50 for positive allosteric modulation: 7.0

Compound: O=C(N[C@H]1CCCC[C@@H]1O)c1cn(Cc2ccc(F)c(F)c2)c2cccnc12 [Example 94, 1-(3,4-difluorobenzyl)-N-((1S,2S)-2-hydroxycyclohexyl)-1H-pyrrolo[3,2-b]pyridine-3-carboxamide]
- pEC50 for positive allosteric modulation: 6.6
